Laboratory results published in US20230146455A1, “TREATMENT OF INFLAMMATORY DISEASES WITH PEPTIDES AND PHARMACEUTICAL COMPOSITIONS” (Yuyu Pharma, Inc., priority 2020, published 2023).
Values joined by “and” are separate entries in the source; they are usually repeats but may differ in a detail not shown here. Equal values may be shown once. Where a SMILES comes first, the peptide text is derived from it. [ ]: non-standard residue; d: D form. Hyp = O=C(O)[C@@H]1C[C@@H](O)CN1

Tested on: MMP-3
Test: Example 8 main study Luminex, LPS hPBMCs: MMP-3
Format: cell-based, human
Details: for MMP-3 Concentration: single replicates; for LPS-induced MMP3 (in words): at as low as 5 μM, LPS 5 ug/mL 24 hrs
Experimental: Human PBMCs were pretreated with YY-101, YDE-011, YDE-043 or reference compound; Xiidra® at various concentration (ranging from […] to 500 nM) for 2 h before stimulation. An equal volume of 0.5% DMSO was used as a vehicle control. Then, the cells were treated with LPS at 5 ug/ml, which was selected based on the pilot study. The supernatants from treated cells were harvested at 24 h and placed in a 96 well for Luminex cytokine & chemokine profiling using a Luminex 200 multiplex assay (Luminex; R&D system, USA).
The main study arm with triplicate wells per group in a 24-well plate: • 1. Blank • 2. PBMC: 0.5% DMSO • 3. PBMC+LPS (5 ug/ml) • 4. PBMC+YY-101 500 nM • 5. PBMC+YY-101 50 nM • 6. PBMC+YY-101 5 nM • 7. PBMC+YY-101 0.5 nM • 8. PBMC+LPS (5 ug/ml)+Xiidra® 500 nM • 9. PBMC+LPS (5 ug/ml)+Xiidra® 50 nM • 10. PBMC+LPS (5 ug/ml)+Xiidra® 5 nM • 11. PBMC+LPS (5 ug/ml)+Xiidra® 0.5 nM • 12. PBMC+LPS (5 ug/ml)+Xiidra® 0.05 nM • 13. PBMC+LPS (5 ug/ml)+Xiidra® 0.005 nM • 14. PBMC+LPS (5 ug/ml)+YY-101 500 nM • 15. PBMC+LPS (5 ug/ml)+YY-101 50 nM • 16. PBMC+LPS (5 ug/ml)+YY-101 5 nM • 17. PBMC+LPS (5 ug/ml)+YY-101 0.5 nM • 18. PBMC+LPS (5 ug/ml)+YY-101 0.05 nM • 19. PBMC+LPS (5 ug/ml)+YY-101 0.005 nM • 20. PBMC+LPS (5 ug/ml)+YDE-011 500 nM • 21. PBMC+LPS (5 ug/ml)+YDE-011 50 nM • 22. PBMC+LPS (5 ug/ml)+YDE-011 5 nM • 23. PBMC+LPS (5 ug/ml)+YDE-011 0.5 nM • 24. PBMC+LPS (5 ug/ml)+YDE-011 0.05 nM • 25. PBMC+LPS (5 ug/ml)+YDE-011 0.005 nM • 26. PBMC+LPS (5 ug/ml)+YDE-043 500 nM • 27. PBMC+LPS (5 ug/ml)+YDE-043 50 nM • 28. PBMC+LPS (5 ug/ml)+YDE-043 5 nM • 29. PBMC+LPS (5 ug/ml)+YDE-043 0.5 nM • 30. PBMC+LPS (5 ug/ml)+YDE-043 0.05 nM • 31. PBMC+LPS (5 ug/ml)+YDE-043 0.005 nM
Multiplex assay was used to measure 30 cytokines and chemokines. The 1:200 diluted cell supernatant and serial dilution of the standard were dispensed into a 96 well plate at 50 ul/well. Then, the pre-mixed cocktail of antibody-coated magnetic beads was dispensed at 50 ul/well and incubated at room temperature for 2 h in a horizontal orbital microplate shaker at 800±500 rpm. The beads were washed using a magnetic device to prevent loss. The biotin-antibody was dispensed in 50 ul of each well and incubated at room temperature for 1 h in a shaker at 800±500 rpm. After washing, streptavidin-PE was added at 50 ul/well and incubated at room temperature for 30 min in a shaker under the same conditions. Finally, after washing, wash buffer (100 ul/well) was added to the plate and incubated in a shaker for 2 min. The Luminex™ 200 setting were set according to the manufacturer's protocol. The data was calculated with a standard five-parameter logistic nonlinear regression analysis of the data (xPonent software 4.2, USA). Results were presented as concentration (ng/ml or pg/ml).

[1] = PBMC + LPS(5 ug/ml) + YDE011 0.005 nM
[2] = PBMC + LPS(5 ug/ml) + YDE011 0.05 nM
[3] = PBMC + LPS(5 ug/ml) + YDE011 0.5 nM
[4] = PBMC + LPS(5 ug/ml) + YDE011 5 nM
[5] = PBMC + LPS(5 ug/ml) + YDE011 50 nM
[6] = PBMC + LPS(5 ug/ml) + YDE011 500 nM
[7] = PBMC + LPS(5 ug/ml) + YDE043 0.005 nM
[8] = PBMC + LPS(5 ug/ml) + YDE043 0.05 nM
[9] = PBMC + LPS(5 ug/ml) + YDE043 0.5 nM
[10] = PBMC + LPS(5 ug/ml) + YDE043 5 nM
[11] = PBMC + LPS(5 ug/ml) + YDE043 50 nM
[12] = PBMC + LPS(5 ug/ml) + YDE043 500 nM
[13] = PBMC + LPS(5 ug/ml) + YY101 0.005 nM
[14] = PBMC + LPS(5 ug/ml) + YY101 0.05 nM
[15] = PBMC + LPS(5 ug/ml) + YY101 0.5 nM
[16] = PBMC + LPS(5 ug/ml) + YY101 5 nM
[17] = PBMC + LPS(5 ug/ml) + YY101 50 nM
[18] = PBMC + LPS(5 ug/ml) + YY101 500 nM

CC(C)C[C@H](NC(=O)CNC(=O)[C@H](CC(C)C)NC(=O)[C@H](CCC(N)=O)NC(=O)CNC(=O)[C@@H]1C[C@@H](O)CN1)C(=O)N[C@@H](C)C(=O)NCC(=O)N1CCC[C@H]1C(=O)N[C@@H](CCCCN)C(=O)O [YDE-011] (H-[Hyp]GQLGLAGPK-OH)
MMP-3 Concentration, Mean [1]: 7336.4 pg/mL
MMP-3 Concentration [1]: 7512.0 pg/mL and 7323.6 pg/mL and 7173.5 pg/mL
MMP-3 Concentration, Mean [2]: 7638.4 pg/mL
MMP-3 Concentration [2]: 7474.3 pg/mL and 7928.9 pg/mL and 7512.0 pg/mL
MMP-3 Concentration, Mean [3]: 7136.1 pg/mL
MMP-3 Concentration [3]: 7248.5 pg/mL and 7098.6 pg/mL and 7061.2 pg/mL
MMP-3 Concentration, Mean [4]: 6802.1 pg/mL
MMP-3 Concentration [4]: 6282.7 pg/mL and 6800.1 pg/mL and 7323.6 pg/mL
MMP-3 Concentration, Mean [5]: 6735.1 pg/mL
MMP-3 Concentration [5]: 7248.5 pg/mL and 7474.3 pg/mL and 5482.5 pg/mL
MMP-3 Concentration, Mean [6]: 6625.8 pg/mL
MMP-3 Concentration [6]: 7776.9 pg/mL and 5374.6 pg/mL and 6725.8 pg/mL
LPS-induced MMP3 (in words): significantly reduced

CC(C)C[C@H](NC(=O)[C@H](CCC(N)=O)NC(=O)CNC(=O)[C@@H]1C[C@@H](O)CN1)C(=O)NCC(=O)O [YDE-043] (H-[Hyp]GQLG-OH; N-terminus and C-terminus assumed)
MMP-3 Concentration, Mean [7]: 7677.2 pg/mL
MMP-3 Concentration [7]: 7173.5 pg/mL and 7776.9 pg/mL and 8081.3 pg/mL
MMP-3 Concentration, Mean [8]: 7136.1 pg/mL
MMP-3 Concentration [8]: 7061.2 pg/mL and 7248.5 pg/mL and 7098.6 pg/mL
MMP-3 Concentration, Mean [9]: 7173.5 pg/mL
MMP-3 Concentration [9]: 7098.6 pg/mL and 7248.5 pg/mL and 7173.5 pg/mL
MMP-3 Concentration, Mean [10]: 7424.0 pg/mL
MMP-3 Concentration [10]: 7474.3 pg/ml (2×) and 7323.6 pg/ml
MMP-3 Concentration, Mean [11]: 7337.3 pg/mL
MMP-3 Concentration [11]: 7701.1 pg/mL and 7398.9 pg/mL and 6911.8 pg/mL
MMP-3 Concentration, Mean [12]: 7311.7 pg/mL
MMP-3 Concentration [12]: 7098.6 pg/mL and 7663.2 pg/mL and 7173.5 pg/mL
LPS-induced MMP3 (in words): significantly reduced

CC(C)C[C@H](NC(=O)CNC(=O)[C@H](CC(=O)O)NC(=O)[C@H](CCC(N)=O)NC(=O)CNC(=O)[C@@H]1C[C@@H](O)CN1)C(=O)N[C@@H](C)C(=O)NCC(=O)N1CCC[C@H]1C(=O)N[C@@H](CCCCN)C(=O)O [YY-101] (H-[Hyp]GQDGLAGPK-OH; N-terminus and C-terminus assumed)
MMP-3 Concentration, Mean [13]: 7549.8 pg/mL
MMP-3 Concentration [13]: 7549.7 pg/mL and 7474.3 pg/mL and 7625.3 pg/mL
MMP-3 Concentration, Mean [14]: 8082.3 pg/mL
MMP-3 Concentration [14]: 7776.9 pg/mL and 8541.1 pg/mL and 7928.9 pg/mL
MMP-3 Concentration, Mean [15]: 7751.6 pg/mL
MMP-3 Concentration [15]: 7701.1 pg/ml and 7776.9 pg/ml (2×)
MMP-3 Concentration, Mean [16]: 7905.9 pg/mL
MMP-3 Concentration [16]: 7549.7 pg/ml (2×) and 8618.2 pg/ml
MMP-3 Concentration, Mean [17]: 7777.4 pg/mL
MMP-3 Concentration [17]: 7549.7 pg/mL and 7701.1 pg/mL and 8081.3 pg/mL
MMP-3 Concentration, Mean [18]: 7752.0 pg/mL
MMP-3 Concentration [18]: 8043.1 pg/mL and 7663.2 pg/mL and 7549.7 pg/mL
MMP-3 Concentration, Mean (PBMC + YY101 0.5 nM, no LPS): 6246.3 pg/mL
MMP-3 Concentration (PBMC + YY101 0.5 nM, no LPS): 6062.8 pg/mL and 6429.9 pg/mL
MMP-3 Concentration, Mean (PBMC + YY101 5 nM, no LPS): 6246.0 pg/mL
MMP-3 Concentration (PBMC + YY101 5 nM, no LPS): 6172.6 pg/mL and 6319.4 pg/mL
MMP-3 Concentration, Mean (PBMC + YY101 0.05 uM, no LPS): 6374.8 pg/mL
MMP-3 Concentration (PBMC + YY101 0.05 uM, no LPS): 6503.7 pg/mL and 6245.9 pg/mL
MMP-3 Concentration, Mean (PBMC + YY101 50 nM, no LPS): 6118.0 pg/mL
MMP-3 Concentration (PBMC + YY101 50 nM, no LPS): 6282.7 pg/mL and 5953.3 pg/mL
MMP-3 Concentration, Mean (PBMC + YY101 500 nM, no LPS): 6356.3 pg/mL
MMP-3 Concentration (PBMC + YY101 500 nM, no LPS): 6282.7 pg/mL and 6429.9 pg/mL
LPS-induced MMP3 (in words): significantly reduced
